Measurements: patent publication US20250228851A1, “ALLOSTERIC INHIBITOR COMPOUNDS FOR OVERCOMING CANCER RESISTANCE” (priority 2021, published 2025)
“Also recorded” adds a separate entry of the source.

Columns and labels:
[1] = test system: HP (Ph− ALL PD-LTC); experiment: XTT cell viability, PD-LTC HP; conditions: increasing concentration up to 10 μM
Protocol: (§6) Each tested compound was dissolved in a suitable vehicle and cells were exposed to successive solutions containing an increasing concentration of each test compound, as well as a control sample containing no test compound. A range of 5 (or 10) concentrations were tested in triplicates starting from 1 μM. The potency of each test compound was assessed by cell viability using an XTT assay [53, 54]. The ratio of cell viability (CV %) was determined by calculating the average of each triplicate, normalizing to the average in case to the average of the control sample.
(§7) Standard deviation (STD) was calculated for each triplicate and the curve logarithmic equation was calculated for each curve.
(§8) Each compound was assayed against a panel of Patient-Derived Long-Term cultures (PD-LTCs) including: • 8. […] PH: primary Patient-Derived Long-Term Cultures (PD-LTCs) from Ph^+ ALL patients Ph+ ALL (p185-BCR-ABL) that are fully responsive to TKIs ˜30% of adult ALL patients harbor the Ph chromosome, that represent a high-risk group of ALL. • 10. […] HP: PD-LTCs derived from Ph− ALL patient (not harboring the Ph chromosome). HP was used as negative control. • 12. VM: derived from a Ph+ ALL patient harboring p210-BCR-ABL. • 13.
(§9) The dose-response curves for single agent treatments were generated in Prism 9 (GraphPad). Curve fitting was performed by nonlinear regression using the log(inhibitor) vs. normalized response—Variable slope model.

[2] = test system: PINCO transfected Ba/F3 cells; experiment: XTT cell viability, Ba/F3 transduced with empty vector (PINCO); assay type: cell-based, murine; conditions: increasing concentration up to 10 μM
Protocol: (§1) • 1. Ba/F3 cells were obtained from the German Collection of Microorganisms and Cell Cultures (DSMZ, Braunschweig, Germany) and maintained in RPMI 1640 medium supplemented with 10% fetal calf serum (Invitrogen) containing 10 ng/ml of interleukin-3 (Cell Concepts, Umkirch, Germany). Ecotropic Phoenix cells and Rat-1 cells were cultured in Dulbecco's modified Eagle's medium supplemented with 10% fetal calf serum. GNF-2 (Sigma-Adrich, Steinheim, Germany) was dissolved in dimethyl sulfoxide and added at a final concentration of […]. Cell growth was assessed by dye exclusion using Trypan blue. Proliferation was assessed using the XTT proliferation kit (Roche, Mannheim, Germany), according to the manufacturer's instructions. • 2. Ba/F3: IL-3 dependent lymphatic murine pro B cell line. Ba/F3 cells expressing either p185-BCR-ABL1 (p185-BCR-ABL-Ba/F3) or p210-BCR-ABL (p210-BCR-ABL-Ba/F3). p185-BCR-ABL1 (activated kinases substitute for the IL-3 signaling and therefore render the cells IL3 independent. Ba/F3 cells expressing either p185-BCR-ABL (p185-Ba/F3) or p210-BCR-ABL (p210-Ba/F3). Ba/F3 cells obtained from the German Collection of Microorganisms and Cell Cultures (DSMZ, Braunschweig, Germany). • 3. Mutant transduced Ba/F3 cells (T315I-p185-BCR-ABL1 or T315I-p210-BCR-ABL1): Ba/F3 cells expressing either the mutated forms T315I-p185-BCR-ABL1 or T315I-p210-BCR-ABL1. • 4. WT-Sup-B15: A Ph+ ALL cell line harboring the p185-BCR-ABL. Sup-B15: established from the bone marrow of a child with acute lymphoblastic leukemia (B cell precursor ALL) in second relapse in 1984; described in the literature to carry the ALL-variant (m-BCR) of the BCR-ABL1 fusion gene (e1-a2) correct, because it results in the p185-BCR-ABL version. • 5. […]
FIG. 11: Antiproliferative effect of Compound 16 on PINCO transfected Ba/F3 cells. […] Proliferation status was determined by the metabolic activity of cells given by the reduction rate of XTT to formazan. […]

[3] = test system: Ph− V617FJAK2 HEL; experiment: XTT cell viability, HEL; assay type: cell-based, human; conditions: increasing concentration up to 10 μM
Protocol: (§2) • 1. Ba/F3 cells were obtained from the German Collection of Microorganisms and Cell Cultures (DSMZ, Braunschweig, Germany) and maintained in RPMI 1640 medium supplemented with 10% fetal calf serum (Invitrogen) containing 10 ng/ml of interleukin-3 (Cell Concepts, Umkirch, Germany). Ecotropic Phoenix cells and Rat-1 cells were cultured in Dulbecco's modified Eagle's medium supplemented with 10% fetal calf serum. GNF-2 (Sigma-Adrich, Steinheim, Germany) was dissolved in dimethyl sulfoxide and added at a final concentration of […]. Cell growth was assessed by dye exclusion using Trypan blue. Proliferation was assessed using the XTT proliferation kit (Roche, Mannheim, Germany), according to the manufacturer's instructions. • 2. Ba/F3: IL-3 dependent lymphatic murine pro B cell line. […]

[4] = test system: Ba/F3 cells expressing T315I-p185-BCR-ABL; experiment: XTT cell viability / proliferation, Ba/F3 expressing T315I-p185-BCR-ABL; assay type: cell-based, murine; conditions: for antiproliferative response (in words): T315I-p185-BCR-ABL-Ba/F3, increasing concentration up to 10 μM
Protocol: (§3) • 1. Ba/F3 cells were obtained from the German Collection of Microorganisms and Cell Cultures (DSMZ, Braunschweig, Germany) and maintained in RPMI 1640 medium supplemented with 10% fetal calf serum (Invitrogen) containing 10 ng/ml of interleukin-3 (Cell Concepts, Umkirch, Germany). Ecotropic Phoenix cells and Rat-1 cells were cultured in Dulbecco's modified Eagle's medium supplemented with 10% fetal calf serum. GNF-2 (Sigma-Adrich, Steinheim, Germany) was dissolved in dimethyl sulfoxide and added at a final concentration of […]. Cell growth was assessed by dye exclusion using Trypan blue. Proliferation was assessed using the XTT proliferation kit (Roche, Mannheim, Germany), according to the manufacturer's instructions. • 2. Ba/F3: IL-3 dependent lymphatic murine pro B cell line. Ba/F3 cells expressing either p185-BCR-ABL1 (p185-BCR-ABL-Ba/F3) or p210-BCR-ABL (p210-BCR-ABL-Ba/F3). p185-BCR-ABL1 (activated kinases substitute for the IL-3 signaling and therefore render the cells IL3 independent. Ba/F3 cells expressing either p185-BCR-ABL (p185-Ba/F3) or p210-BCR-ABL (p210-Ba/F3). Ba/F3 cells obtained from the German Collection of Microorganisms and Cell Cultures (DSMZ, Braunschweig, Germany). • 3. Mutant transduced Ba/F3 cells (T315I-p185-BCR-ABL1 or T315I-p210-BCR-ABL1): Ba/F3 cells expressing either the mutated forms T315I-p185-BCR-ABL1 or T315I-p210-BCR-ABL1. • 4. WT-Sup-B15: A Ph+ ALL cell line harboring the p185-BCR-ABL. Sup-B15: established from the bone marrow of a child with acute lymphoblastic leukemia (B cell precursor ALL) in second relapse in 1984; described in the literature to carry the ALL-variant (m-BCR) of the BCR-ABL1 fusion gene (e1-a2) correct, because it results in the p185-BCR-ABL version. • 5. […] V617FJAK2 HEL: (Human erythroleukemia) is a growth factor independent erythroleukemic cell line established from the bone marrow of a patient with relapsed Hodgkin disease after autologous bone marrow transplantation (Martin P & Papayannopoulou T: Science 1982; 216:1233-1235). HEL cells display a block in differentiation at the level of common erythroid-megakaryocytic progenitor and have been commonly used as a model to study erythroid and megakaryocytic differentiation. • 7. Jurkat: an immortalized human T lymphocyte first derived from the peripheral blood of a child suffering from T cell leukemia. Jurkat cells are used to study acute T cell leukemia, T cell signaling, and the expression of various chemokine receptors susceptible to viral entry, particularly HIV.
(§4) FIGS. 1A and 1B: Effects of Compound 16 on Ba/F3 cells expressing either p185-BCR-ABL or T315I-p185-BCR-ABL. Cells were exposed to increasing concentration of Compound 16 [empty vehicle (0.0 μM+IL3), 2.5, 5.0 and 10.0 μM]. […] Cell viability (CV) was assessed using the XTT method as described in the experimental part. The means±SD of triplicates from one representative experiment out of three performed are given.
(§5) FIGS. 7A-C: Effects of Compound 16 on of Ba/F3 cells expressing WT-p185-BCR-ABL (FIG. 7A) and the mutant gatekeeper T315I-p185-BCR-ABL (FIG. 7B) by Compound 16. Cells were exposed to increasing concentrations of Compound 16.

[5] = test system: KÖ (Ph+T315I-p185-BCR-ABL ALL); experiment: XTT cell viability, PD-LTC KÖ; assay type: cell-based, human
[6] = test system: Sup-B15 (p185-BCR-ABL); experiment: XTT cell viability, Sup-B15 (WT-Sup-B15); assay type: cell-based, human
Protocol: as §3
FIG. 2: Effect of Compound 16 on leukemia cell lines (Jurkat, Sup-B15 and BV173). Cell viablility (CV) was determined following incubation of the 1 m cells/ml of each cell line with increasing concentration of the Compound 16 [empty vehicle (0.0 μM+IL3), 2.5, 5.0 and 10.0 μM]. CV was measured by the XTT method. The means±SD of triplicates from one representative experiment out of three performed are given.

[7] = test system: PH (Ph+ ALL PD-LTC); experiment: XTT cell viability, PD-LTC PH; conditions: for antiproliferative response (in words): increasing concentration 0.5-10 μM
Protocol: as §6, §7, §8, §9

[8] = test system: BV (Ph+ ALL PD-LTC); experiment: XTT cell viability, PD-LTC BV; assay type: cell-based, human; conditions: for antiproliferative response (in words): increasing concentration 0.5-10 μM; for induction of cell proliferation at high concentration (in words): concentration >5 μM (10 μM)
[9] = test system: Ba/F3 cells expressing p185-BCR-ABL; experiment: XTT cell viability / proliferation, Ba/F3 expressing p185-BCR-ABL; assay type: cell-based, murine; conditions: p185-BCR-ABL-Ba/F3, increasing concentration up to 10 μM
Protocol: as §3, §4, §5

[10] = test system: Jurkat; experiment: XTT cell viability, Jurkat; assay type: cell-based, human; conditions: increasing concentration up to 10 μM
Protocol: as §1
FIG. 2: Effect of Compound 16 on leukemia cell lines (Jurkat, Sup-B15 and BV173). Cell viablility (CV) was determined following incubation of the 1 m cells/ml of each cell line with increasing concentration of the Compound 16 [empty vehicle (0.0 μM+IL3), 2.5, 5.0 and 10.0 μM]. CV was measured by the XTT method. […]

[11] = test system: RT-Sup-B15; experiment: XTT cell viability, RT-Sup-B15; assay type: cell-based, human; conditions: RT-Sup-B15, increasing concentration up to 10 μM
Protocol: as §2

[12] = test system: SATA5, pSTAT5, JAK2 and pJAK2; experiment: Western blotting of HEL cells; assay type: cell-based, human; conditions: 500 nM
Protocol: FIG. 40: Western blot analysis of HEL cells using antibodies directed against the indicated proteins. Cells were exposed to increasing concentration of Compound 34 [vehicle (0.0 nM), 50, 100.0, 500.0, 1000.0, and 5000.0 nM].
Cells were harvested at the corresponding time intervals (0, 3, 6, 12, and 14 hours) on HELL cells. Anti-STAT5, anti-pSTAT5, anti-JAK2 and anti-pJAK2 antibodies were used.

SMILES	antiproliferative response (in words) [1]	antiproliferative response (in words) [4]	antiproliferative response (in words) [7]	antiproliferative response (in words) [8]	antiproliferative response (in words) [9]	further results
O=C(Nc1ccc(OC(F)(F)Cl)cc1)c1cnc(N2CC[C@@H](O)C2)c(-c2cc[nH]n2)c1 [ABL001, Asciminib, reference compound]	irresponsiveness	–	–	–	–	–
CS(=O)(=O)N1CCN(c2cc(Nc3ccc(OC(F)(F)F)cc3)ncn2)CC1 [Compound 30]	–	concentration dependent inhibition; also recorded: weakly responsive	increased sensitivity; also recorded: PH>BV	increased sensitivity	increased sensitivity	antiproliferative response (in words) [2]: weakly responsive; antiproliferative response (in words) [3]: weakly responsive; also recorded: negligible at low concentrations (<1 μM); also recorded: weak inhibition is noticed at concentration that ranges between 2.5-10 μM; cell viability (CV) at plateau ([4]; 4 and 10.0 μM): ~16%; antiproliferative response (in words) ([5]; increasing concentration up to 10 μM): weak inhibition is noticed at concentration that ranges between 2.5-10 μM; also recorded: negligible at low concentrations (<1 μM); antiproliferative response (in words) ([6]; Sup-B15 / WT-Sup-B15, increasing concentration up to 10 μM): responsive; also recorded: twice as sensitive; also recorded: increased sensitivity; antiproliferative response (in words) [10]: irresponsive; antiproliferative response (in words) [11]: irresponsive; also recorded: weakly responsive
Cc1ccc(S(=O)(=O)N2CCN(c3cc(Nc4ccc(OC(F)(F)F)cc4)ncn3)CC2)cc1 [Compound 31]	negligible	negligible	significantly inhibited; also recorded: increased sensitivity; also recorded: enhanced activity	significantly inhibited; also recorded: increased sensitivity; also recorded: enhanced activity	negligible	antiproliferative response (in words) [3]: negligible; induction of cell proliferation at high concentration (in words) ([7]; concentration >5 μM (10 μM)): induction of cell proliferation; also recorded: growth induction; induction of cell proliferation at high concentration (in words) [8]: induction of cell proliferation; also recorded: growth induction; induction of cell proliferation at high concentration (in words) ([8]; listed as −31): growth induction
COc1ccc(C(=O)N2CCN(c3cc(Nc4ccc(OC(F)(F)F)cc4)ncn3)CC2)c(OC)c1 [Compound 32]	–	–	enhanced activity; also recorded: good inhibitory effect	enhanced activity; also recorded: milder	–	–
O=C(c1cccc(-c2cc(Nc3ccc(OC(F)(F)F)cc3)ncn2)c1)N1CCN(c2ccc(C(F)(F)F)cn2)CC1 [Compound 34]	highly resistant; also recorded: negligible; also recorded: some response at higher doses	least responsive; also recorded: irresponsive	most responsive; also recorded: twice as sensitive	more effective in inhibiting the proliferation BV than KÖ	most sensitive	antiproliferative response (in words) [2]: intermediately responsive; also recorded: next in response; IC50 ([5]; Table 1): 2370 nM; IC50 ([6]; WT-Sup-B15, Table 1): 28600 nM; IC50 ([7]; Table 1): 130 nM; IC50 ([8]; Table 1): 450 nM; antiproliferative response (in words) [10]: irresponsive; also recorded: negligible; level of expression of SATA5, pSTAT5, JAK2 and pJAK2 (in words) [12]: reduction in the level of expression; antiproliferative response (in words) [11]: irresponsive; also recorded: negligible
Cc1ccc(NC(=O)c2ccc(CN3CCN(C)CC3)cc2)cc1Nc1nccc(-c2cccnc2)n1 [Imatinib, reference compound]	irresponsiveness	–	–	–	–	–
Cc1cn(-c2cc(NC(=O)c3ccc(C)c(Nc4nccc(-c5cccnc5)n4)c3)cc(C(F)(F)F)c2)cn1 [Nilotinib, reference compound]	irresponsiveness	–	–	–	–	–
